According to patent US20250034159A1, “INHIBITORS OF EPIDERMAL GROWTH FACTOR RECEPTOR” (ORIC Pharmaceuticals, Inc., priority 2021, published 2025):
Where two headings read alike, the source gives them in different places.

Assays:
[1] = biological target: recombinant human EGFR exon 19 deletion/C797S double mutant protein (Homo sapiens (Human), UniProt P00533, C797S/DEL746-750); assay: Biological Activity Assay C: biochemical assay against EGFR exon 19 deletion/C797S protein (EGFR d19/CS)
How it was run: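 IC50 values were fitted with a 4-parameter model to reaction slopes taken from 90 kinetic reads spaced 120 s apart. The Phosphosens sensor/ATP working solution was 40 uM/4 mM, and compound was dosed as 16-point dilutions at 2.5% final DMSO.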

[2] = tested on: Ba/F3_EGFR WT cells; assay: Biological Activity Assay D: BaF3 cell proliferation assay, EGFR wild-type (BaF3 WT); type: cell-based; conditions: Ba/F3 EGFR, read-out: BaF3 WT IC50
[3] = tested on: BaF3_EGFR LR/CS cells; assay: Biological Activity Assay D: BaF3 cell proliferation assay, EGFR L858R/C797S mutant (BaF3 LR/CS); type: cell-based; conditions: Ba/F3 EGFR, read-out: BaF3 LR/CS IC50
[4] = tested on: BaF3_EGFR d19/CS cells; assay: Biological Activity Assay D: BaF3 cell proliferation assay, EGFR exon 19 deletion/C797S (BaF3 d19/CS); type: cell-based; conditions: Ba/F3 EGFR, read-out: BaF3 d19/CS IC50
[5] = Ba/F3_EGFR WT cells, ~72 hours, CellTiter-Glo
[6] = BaF3_EGFR LR/CS cells, ~72 hours, CellTiter-Glo
[7] = BaF3_EGFR d19/CS cells, ~72 hours, CellTiter-Glo

Sequence of recombinant human EGFR exon 19 deletion/C797S double mutant protein (P00533 other isoform, or with tags, fused parts or gaps C797S/del 1-668/del 746-750 limits assumed): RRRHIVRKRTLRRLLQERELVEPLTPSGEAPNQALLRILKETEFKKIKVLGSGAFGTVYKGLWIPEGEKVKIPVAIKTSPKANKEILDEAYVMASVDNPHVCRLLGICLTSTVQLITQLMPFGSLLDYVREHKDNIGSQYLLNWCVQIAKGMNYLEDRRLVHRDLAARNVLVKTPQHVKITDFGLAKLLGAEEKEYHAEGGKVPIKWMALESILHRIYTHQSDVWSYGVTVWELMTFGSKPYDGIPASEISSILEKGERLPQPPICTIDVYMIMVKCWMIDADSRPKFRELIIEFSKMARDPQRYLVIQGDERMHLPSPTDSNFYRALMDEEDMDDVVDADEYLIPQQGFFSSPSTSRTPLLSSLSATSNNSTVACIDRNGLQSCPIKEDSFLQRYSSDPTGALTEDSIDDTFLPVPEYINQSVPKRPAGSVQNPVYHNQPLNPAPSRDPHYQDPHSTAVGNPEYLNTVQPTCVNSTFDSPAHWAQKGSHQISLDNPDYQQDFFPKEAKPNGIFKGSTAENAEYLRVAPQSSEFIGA

| Compound | IC50 [1] [nM] | IC50 ([2]; 72 h) [nM] | IC50 ([3]; 72 h) [nM] | IC50 ([4]; 72 h) [nM] | IC50 [2, 5] [nM] | IC50 [3, 6] [nM] | IC50 [4, 7] [nM] |
| --- | --- | --- | --- | --- | --- | --- | --- |
| Cc1cccc(-c2cc3c(-c4cn(C5CS(=O)(=O)C5)nc4-c4ccc(F)cc4)ncnc3o2)n1 [Example 253, 3-{3-(4-fluorophenyl)-4-[6-(6-methylpyridin-2-yl)furo[2,3-d]pyrimidin-4-yl]-1H-pyrazol-1-yl}-16-thietane-1,1-dione] | 0.2 | 7740 | 51.6 | 87.7 |  |  |  |
| Cn1cnc(-c2cc3c(-c4cn(CC(C)(C)O)nc4-c4ccc(F)cc4)ncnc3o2)c1 [Example 254, 1-{3-(4-fluorophenyl)-4-[6-(1-methyl-1H-imidazol-4-yl)furo[2,3-d]pyrimidin-4-yl]-1H-pyrazol-1-yl}-2-methylpropan-2-ol] | 0.11 |  |  |  | 442 | 3.05 | 5.01 |
| CC(C)(O)Cn1cc(-c2ncnc3oc(-c4cccnc4)cc23)c(-c2ccc(F)cc2)n1 [Example 255, 1-{3-(4-fluorophenyl)-4-[6-(pyridin-3-yl)furo[2,3-d]pyrimidin-4-yl]-1H-pyrazol-1-yl}-2-methylpropan-2-ol] | 0.47 |  |  |  | 1700 | 51 | 32.4 |
| Cn1cc(-c2cc3c(-c4cn([C@H]5C[C@@H](S(C)(=O)=O)C5)nc4-c4ccc(F)cc4)ncnc3o2)cn1 [Example 256, 4-{3-(4-fluorophenyl)-1-[(1s,3s)-3-(methanesulfonyl)cyclobutyl]-1H-pyrazol-4-yl}-6-(1-methyl-1H-pyrazol-4-yl)furo[2,3-d]pyrimidine] | 0.19 |  |  |  | 403 | 5.23 | 11.2 |
| CC(C)(O)Cn1cc(-c2ncnc3oc(-c4ccccn4)cc23)c(-c2ccc(F)cc2)n1 [Example 257, 1-{3-(4-fluorophenyl)-4-[6-(pyridin-2-yl)furo[2,3-d]pyrimidin-4-yl]-1H-pyrazol-1-yl}-2-methylpropan-2-ol] | 0.2 |  |  |  | 1010 | 18.2 | 20.8 |
| Cc1c(-c2cc3c(-c4cn(CC(C)(C)O)nc4-c4ccc(F)cc4)ncnc3o2)cnn1C [Example 258, 1-{4-[6-(1,5-dimethyl-1H-pyrazol-4-yl)furo[2,3-d]pyrimidin-4-yl]-3-(4-fluorophenyl)-1H-pyrazol-1-yl}-2-methylpropan-2-ol] | 0.16 |  |  |  | 976 | 12.7 | 18.5 |
| Cn1cnc(-c2cc3c(-c4cn([C@H]5C[C@@H](S(C)(=O)=O)C5)nc4-c4ccc(F)cc4)ncnc3o2)c1 [Example 259, 4-{3-(4-fluorophenyl)-1-[(1s,3s)-3-(methanesulfonyl)cyclobutyl]-1H-pyrazol-4-yl}-6-(1-methyl-1H-imidazol-4-yl)furo[2,3-d]pyrimidine] | 0.1 |  |  |  | 498 | 4.44 | 14.4 |
| CC(=O)N1C=C(c2cc3c(-c4cn(CC(C)(C)O)nc4-c4ccc(F)cc4)ncnc3o2)CCC1 [Example 260, 1-[5-{4-[3-(4-fluorophenyl)-1-(2-hydroxy-2-methylpropyl)-1H-pyrazol-4-yl]furo[2,3-d]pyrimidin-6-yl}-3,4-dihydropyridin-1 (2H)-yl]ethan-1-one] | 0.35 |  |  |  | 1920 | 17 | 33 |
| Cn1cc(-c2cc3c(-c4cn(CC(C)(C)O)nc4-c4ccc(F)cc4)ncnc3o2)cn1 [Example 261, 1-{3-(4-fluorophenyl)-4-[6-(1-methyl-1H-pyrazol-4-yl)furo[2,3-d]pyrimidin-4-yl]-1H-pyrazol-1-yl}-2-methylpropan-2-ol] | 0.206 |  |  |  | 550 | 4.53 | 10.1 |
| CC(C)(O)Cn1cc(-c2ncnc3oc(-c4ccccc4Cl)cc23)c(-c2ccc(F)cc2)n1 [Example 262, 1-{4-[6-(2-chlorophenyl)furo[2,3-d]pyrimidin-4-yl]-3-(4-fluorophenyl)-1H-pyrazol-1-yl}-2-methylpropan-2-ol] | 0.396 |  |  |  | 4060 | 78.2 | 47 |
| Cn1cnc(-c2cc3c(-c4cn(CCC(F)F)nc4-c4ccc(F)cc4)ncnc3o2)c1 [Example 263, 4-[1-(3,3-difluoropropyl)-3-(4-fluorophenyl)-1H-pyrazol-4-yl]-6-(1-methyl-1H-imidazol-4-yl)furo[2,3-d]pyrimidine] | 0.153 |  |  |  | 235 | 2.36 | 6.17 |
| Cn1cnc(-c2cc3c(-c4cn([C@H]5C[C@@H](F)C5)nc4-c4ccc(F)cc4)ncnc3o2)c1 [Example 264, 4-{1-[(1s,3s)-3-fluorocyclobutyl]-3-(4-fluorophenyl)-1H-pyrazol-4-yl}-6-(1-methyl-1H-imidazol-4-yl)furo[2,3-d]pyrimidine] | 0.135 |  |  |  | 448 | 6.54 | 8.85 |
| Cn1cnc(-c2cc3c(-c4cn(CCC#N)nc4-c4ccc(F)cc4)ncnc3o2)c1 [Example 265, 3-{3-(4-fluorophenyl)-4-[6-(1-methyl-1H-imidazol-4-yl)furo[2,3-d]pyrimidin-4-yl]-1H-pyrazol-1-yl}propanenitrile] | 0.078 |  |  |  | 69.9 | 1.43 | 1.46 |
| Cn1cnc(-c2cc3c(-c4cn(CC(F)(F)CO)nc4-c4ccc(F)cc4)ncnc3o2)c1 [Example 266, 2,2-difluoro-3-{3-(4-fluorophenyl)-4-[6-(1-methyl-1H-imidazol-4-yl)furo[2,3-d]pyrimidin-4-yl]-1H-pyrazol-1-yl}propan-1-ol] | 0.094 |  |  |  | 135 | 2.13 | 2.5 |
| Cn1ncc(-c2cc3c(-c4cn(CC(C)(C)O)nc4-c4ccc(F)cc4)ncnc3o2)c1C(F)F [Example 267, 1-[4-{6-[5-(difluoromethyl)-1-methyl-1H-pyrazol-4-yl]furo[2,3-d]pyrimidin-4-yl}-3-(4-fluorophenyl)-1H-pyrazol-1-yl]-2-methylpropan-2-ol] | 0.185 |  |  |  | 688 | 22.2 | 16 |
| N#CCCn1cc(-c2ncnc3oc(-c4cccnc4)cc23)c(-c2ccc(F)cc2)n1 [Example 268, 3-{3-(4-fluorophenyl)-4-[6-(pyridin-3-yl)furo[2,3-d]pyrimidin-4-yl]-1H-pyrazol-1-yl}propanenitrile] | 0.104 |  |  |  | 414 | 16.5 | 13.3 |
| N#CCCn1cc(-c2ncnc3oc(-c4ccccn4)cc23)c(-c2ccc(F)cc2)n1 [Example 269, 3-{3-(4-fluorophenyl)-4-[6-(pyridin-2-yl)furo[2,3-d]pyrimidin-4-yl]-1H-pyrazol-1-yl}propanenitrile] | 0.082 |  |  |  | 392 | 8.63 | 7.72 |
| Cn1cnc(-c2cc3c(-c4cn([C@H]5C[C@H](C#N)C5)nc4-c4ccc(F)cc4)ncnc3o2)c1 [Example 270, (1r,3r)-3-{3-(4-fluorophenyl)-4-[6-(1-methyl-1H-imidazol-4-yl)furo[2,3-d]pyrimidin-4-yl]-1H-pyrazol-1-yl}cyclobutane-1-carbonitrile] | 0.227 |  |  |  | 134 | 1.88 | 1.32 |
| COc1ncccc1-c1cc2c(-c3cn(CC(C)(C)O)nc3-c3ccc(F)cc3)ncnc2o1 [Example 271, 1-{3-(4-fluorophenyl)-4-[6-(2-methoxypyridin-3-yl)furo[2,3-d]pyrimidin-4-yl]-1H-pyrazol-1-yl}-2-methylpropan-2-ol] | 0.252 |  |  |  | 1600 | 20.6 | 14.1 |
| Cc1c(-c2cc3c(-c4cn(CC(C)(C)O)nc4-c4ccc(F)cc4)ncnc3o2)ncn1C [Example 272, 1-{4-[6-(1,5-dimethyl-1H-imidazol-4-yl)furo[2,3-d]pyrimidin-4-yl]-3-(4-fluorophenyl)-1H-pyrazol-1-yl}-2-methylpropan-2-ol] | 0.486 | 668 | 13.5 | 15.7 |  |  |  |
| Cn1ccc(-c2cc3c(-c4cn(CC(C)(C)O)nc4-c4ccc(F)cc4)ncnc3o2)n1 [Example 275, 1-{3-(4-fluorophenyl)-4-[6-(1-methyl-1H-pyrazol-3-yl)furo[2,3-d]pyrimidin-4-yl]-1H-pyrazol-1-yl}-2-methylpropan-2-ol] | 0.207 |  |  |  | 551 | 13.4 | 11.9 |
| COc1ccc(-c2cc3c(-c4cn(CC(C)(C)O)nc4-c4ccc(F)cc4)ncnc3o2)nc1 [Example 276, 1-{3-(4-fluorophenyl)-4-[6-(5-methoxypyridin-2-yl)furo[2,3-d]pyrimidin-4-yl]-1H-pyrazol-1-yl}-2-methylpropan-2-ol] | 0.07 |  |  |  | 677 | 19 | 13.5 |
| CC(C)(O)Cn1cc(-c2ncnc3oc(-c4ccc(F)cn4)cc23)c(-c2ccc(F)cc2)n1 [Example 277, 1-{3-(4-fluorophenyl)-4-[6-(5-fluoropyridin-2-yl)furo[2,3-d]pyrimidin-4-yl]-1H-pyrazol-1-yl}-2-methylpropan-2-ol] | 0.332 |  |  |  | 1500 | 74.4 | 40 |
| Cn1cnc(-c2cc3c(-c4cn([C@H]5C[C@H](O)C5)nc4-c4ccc(F)cc4)ncnc3o2)c1 [Example 278, (1r,3r)-3-{3-(4-fluorophenyl)-4-[6-(1-methyl-1H-imidazol-4-yl)furo[2,3-d]pyrimidin-4-yl]-1H-pyrazol-1-yl}cyclobutan-1-ol] | 0.123 |  |  |  | 272 | 5.14 | 4.31 |
